Experimental data from patent US20070032640A1, “Cytokine receptor” (priority 2001, published 2007).
Substitutions are numbered along the chain they refer to.

T1: human soluble interleukin 6 receptor α-chain (hsIL6Rα) and hsgp130 (Homo sapiens, UniProt P08887)
T1 construct: human soluble interleukin 6 receptor α-chain (hsIL6Rα)
T1 sequence (P08887 20-355 limits assumed): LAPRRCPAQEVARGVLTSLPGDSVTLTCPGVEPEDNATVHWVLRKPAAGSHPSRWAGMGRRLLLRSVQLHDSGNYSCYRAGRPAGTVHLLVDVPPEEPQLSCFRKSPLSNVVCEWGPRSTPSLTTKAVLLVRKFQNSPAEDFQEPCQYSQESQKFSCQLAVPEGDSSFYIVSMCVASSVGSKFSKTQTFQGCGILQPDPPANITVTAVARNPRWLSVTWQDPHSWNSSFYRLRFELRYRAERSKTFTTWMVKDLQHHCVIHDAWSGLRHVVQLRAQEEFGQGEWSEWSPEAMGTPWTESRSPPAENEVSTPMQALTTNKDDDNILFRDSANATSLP

T2: gp130 (Homo sapiens, UniProt P40189)
T2 sequence (P40189 23-918): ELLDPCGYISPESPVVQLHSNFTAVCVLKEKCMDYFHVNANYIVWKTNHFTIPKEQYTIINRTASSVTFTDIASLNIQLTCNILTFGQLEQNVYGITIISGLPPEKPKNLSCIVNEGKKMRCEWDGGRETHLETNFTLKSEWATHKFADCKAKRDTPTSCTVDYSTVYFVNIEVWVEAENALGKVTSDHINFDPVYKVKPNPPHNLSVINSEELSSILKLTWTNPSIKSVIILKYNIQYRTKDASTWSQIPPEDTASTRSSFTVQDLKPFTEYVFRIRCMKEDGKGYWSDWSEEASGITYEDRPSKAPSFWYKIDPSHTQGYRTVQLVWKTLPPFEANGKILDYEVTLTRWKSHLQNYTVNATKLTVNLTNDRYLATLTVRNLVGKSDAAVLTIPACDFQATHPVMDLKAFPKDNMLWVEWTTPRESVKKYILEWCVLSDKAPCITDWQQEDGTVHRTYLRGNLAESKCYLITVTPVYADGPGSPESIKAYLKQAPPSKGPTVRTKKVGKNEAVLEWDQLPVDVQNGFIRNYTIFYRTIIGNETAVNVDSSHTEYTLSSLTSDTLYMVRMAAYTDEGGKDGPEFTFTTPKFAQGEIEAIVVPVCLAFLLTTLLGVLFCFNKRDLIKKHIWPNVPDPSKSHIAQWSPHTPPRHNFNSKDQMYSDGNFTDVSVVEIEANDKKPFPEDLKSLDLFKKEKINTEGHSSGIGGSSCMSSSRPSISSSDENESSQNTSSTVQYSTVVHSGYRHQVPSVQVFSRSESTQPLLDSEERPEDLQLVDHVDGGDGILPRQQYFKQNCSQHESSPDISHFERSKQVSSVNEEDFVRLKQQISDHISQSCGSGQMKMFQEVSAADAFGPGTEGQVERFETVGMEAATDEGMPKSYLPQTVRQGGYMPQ

T3: IL-6R (Homo sapiens, UniProt P08887)
T3 construct: endogenous in cells; host or cells: human myeloma U266 cells
T3 sequence (P08887 20-468): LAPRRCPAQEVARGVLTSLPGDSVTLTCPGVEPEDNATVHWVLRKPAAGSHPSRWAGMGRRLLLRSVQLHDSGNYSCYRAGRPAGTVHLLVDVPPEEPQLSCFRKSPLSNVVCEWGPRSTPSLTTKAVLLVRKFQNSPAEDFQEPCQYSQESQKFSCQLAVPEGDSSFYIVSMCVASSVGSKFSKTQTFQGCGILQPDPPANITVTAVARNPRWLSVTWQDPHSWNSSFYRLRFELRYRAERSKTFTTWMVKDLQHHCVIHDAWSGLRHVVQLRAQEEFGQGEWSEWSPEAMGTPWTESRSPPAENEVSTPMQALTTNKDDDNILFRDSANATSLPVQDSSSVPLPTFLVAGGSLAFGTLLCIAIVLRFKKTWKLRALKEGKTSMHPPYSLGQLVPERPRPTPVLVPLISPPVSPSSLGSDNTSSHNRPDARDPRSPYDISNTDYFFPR

B1: N211: IL-6R N-D mutant at N211 (protein, UniProt P08887 20-468, looked up, variant N211D)
Interleukin-6 receptor …: T3 sequence (P08887 20-468) with N211D

Key:
[1] = molecular target: T4, soluble, recombinant IGF-1 receptor (Homo sapiens, UniProt P08069); test: Solid phase receptor binding assay, IGF-1R/IGF-1 system (specificity); conditions: Eu-IGF-1 binding to IGF-1 receptor, FIG. 7B
T4 construct: soluble, recombinant IGF-1 receptor
Description: (§1) Solid phase receptor binding assays. Ten compounds selected from Table 3 (NCI compounds) were tested for their ability to modulate the binding of europium-labelled IL-6 to soluble, recombinant IL-6 receptor (A) or the binding of europium-labelled IGF-1 to soluble, recombinant IGF-1 receptor (B) in a microplate-based format. Binding to the receptor is measured by time resolved fluorescence (TRF) as a % of control.
In order to examine specificity, the compounds were also assayed against the IGF receptor system in an identical manner.

[2] = molecular target: T1, human soluble interleukin 6 receptor α-chain (hsIL6Rα) and hsgp130; test: High capacity screening assay: binding of europium-labelled human IL6 to hsIL6Rα and immobilised hsgp130; conditions: Eu-IL-6 binding by time resolved fluorescence as % of control, FIG. 7A
Excerpt: Compounds designed according to the methods of the present invention may be assessed by a number of in vitro and in vivo assays of hormone function. For example, the identification of IL-6 receptor antagonists of may be undertaken using a solid-phase receptor binding assay. Potential antagonists may be screened for their ability to inhibit the binding of europium-labelled IL-6 receptor ligands to soluble, recombinant IL-6 receptor in a microplate-based format. Europium is a lanthanide fluorophore, the presence of which can be measured using time-resolved fluorometry. The sensitivity of this assay matches that achieved by radioisotopes, measurement is rapid and is performed in a microplate format to allow high-sample throughput, and the approach is gaining wide acceptance as the method of choice in the development of screens for receptor agonists/antagonists (see Apell et al., J. Biomolec. Screening 3:19-27, 1998: Inglese et al., Biochemistry 37:2372-2377, 1998).
as §1
Ten of the compounds listed in Table 3 were tested for their ability to modulate binding of IL-6 to IL-6R/gp130. The high throughput screening assay used for this purpose detects the binding of europium-labelled human IL6 (Eu-hIL6) to human soluble interleukin 6 receptor α-chain (hsIL6Rα) and hsgp130 immobilised on the surface of wells of a microtitre plate. The protocol followed was essentially as follows: […]
The fractions were assayed for europium by diluting 10,000-fold in 200 μL of DELFIA enhancement solution and measuring europium fluorescence. […] The concentration of Eu-IL6 was determined from the absorbance at 280 nm (0.5 AU/mg/mL) and the labelling stoichiometry based on a molecular mass of 21,300. […]

[3] = molecular target: T2, gp130; set-up: endogenous in cells; host or cells: human myeloma U266 cells; conditions: human myeloma U266 cells, high-affinity binding; read-out: affinity of IL-6/IL-6R complex for gp130; cited from earlier work
[4] = molecular target: T3, IL-6R; conditions: human myeloma U266 cells, low-affinity binding; cited from earlier work
[5] = molecular target: T2, gp130; conditions: IL-6R N-D mutant; cited from earlier work
[6] = tested on: IL-6; conditions: IL-6 binding of IL-6R mutant, relative to wild type; cited from earlier work

T4 sequence (P08069 31-736): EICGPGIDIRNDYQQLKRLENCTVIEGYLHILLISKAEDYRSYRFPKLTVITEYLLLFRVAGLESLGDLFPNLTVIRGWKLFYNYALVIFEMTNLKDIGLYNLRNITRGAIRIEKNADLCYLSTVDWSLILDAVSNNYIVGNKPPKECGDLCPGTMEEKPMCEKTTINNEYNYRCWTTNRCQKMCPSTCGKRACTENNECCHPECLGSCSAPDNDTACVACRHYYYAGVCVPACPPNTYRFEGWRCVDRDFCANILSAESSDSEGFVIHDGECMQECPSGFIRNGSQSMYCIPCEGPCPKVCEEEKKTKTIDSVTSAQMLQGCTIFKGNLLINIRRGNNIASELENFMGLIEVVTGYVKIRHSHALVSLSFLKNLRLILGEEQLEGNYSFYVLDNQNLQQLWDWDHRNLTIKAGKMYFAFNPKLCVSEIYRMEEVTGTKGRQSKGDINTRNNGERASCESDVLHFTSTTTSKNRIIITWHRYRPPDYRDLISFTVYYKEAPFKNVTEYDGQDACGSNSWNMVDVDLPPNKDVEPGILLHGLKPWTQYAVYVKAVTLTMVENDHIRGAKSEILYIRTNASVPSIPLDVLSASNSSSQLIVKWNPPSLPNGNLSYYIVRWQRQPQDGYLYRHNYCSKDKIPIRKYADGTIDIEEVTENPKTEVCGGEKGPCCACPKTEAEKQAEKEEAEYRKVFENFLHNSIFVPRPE
T4 sequence (P08069 741-935): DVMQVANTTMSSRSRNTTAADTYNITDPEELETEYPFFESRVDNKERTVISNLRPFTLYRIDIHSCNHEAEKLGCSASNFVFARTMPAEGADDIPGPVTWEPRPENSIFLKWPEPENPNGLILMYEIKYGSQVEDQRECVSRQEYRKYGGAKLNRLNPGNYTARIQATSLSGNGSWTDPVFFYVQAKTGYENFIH

Molecule	specificity against the IGF-1R/IGF-1 system [1]	effect on IL-6 binding to IL-6R/gp130 (antagonist or agonist) [2]	other results
O=C(C[n+]1ccc2ccccc2c1)c1ccc(-c2ccccc2)cc1 [compound 17791, 1-[1,1′-biphenyl]-4-yl-2-(2^5-isoquinolin-2-yl)ethanone]	specifically	agonists	–
Nc1c(C(=O)Nc2ccc3c(c2)C(=O)c2ccccc2C3=O)ccc2c1C(=O)c1ccccc1C2=O [compound 39914, 1-amino-N-(9,10-dioxo-9,10-dihydro-2-anthracenyl)-9,10-dioxo-9,10-dihydro-2-anthracenecarboxamide]	specifically	antagonist	–
O=C(O)c1ccccc1C(=O)Nc1cc2c(cc1Br)-c1ccccc1C2=O [compound 56681, 2-(((3-bromo-9-oxo-9H-fluoren-2-yl)amino)carbonyl)benzoic acid]	specifically	agonists	–
IL-6/IL-6R complex: complex of IL-6 with the ligand binding α-chain receptor IL-6R	–	–	Kd [3]: ~10 pM
IL-6: multifunctional cytokine, natural ligand of the IL-6 receptor	–	–	Kd [4]: ~1000 pM
B1	–	–	binding to gp130 [5]: N-D mutant, <10% binding to gp130; Binding [6]: 75%
